Experimental data: patent publication US9650379B2 (CHONG KUN DANG PHARMACEUTICAL CORP., priority 2013, dated 2017)

Experiments:
HDAC1 = target: T1, HDAC1 (Homo sapiens, UniProt Q13547); test: Inhibition of HDAC1 activity (HDAC1 fluorimetric drug discovery assay kit); type: biochemical; settings: test concentrations 100, 1000 and 10000 nM; 37° C., 60 minutes
T1 construct: purchased Enzolifesciences BML-AK511
Summary of the method: (§1)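 HDAC1 tested with the kit assay mixture at 100, 1000 and 10000 nM compound; recombinant human HDAC6 at 0.1, 1, 10, 100 and 1000 nM. Reaction ran 60 min at 37° C, then developer was added for 30 min at 37° C and fluorescence quantified.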

HDAC6 human recombinant = target: T2, HDAC6 human recombinant (Homo sapiens, UniProt Q9UBN7); test: Inhibition of HDAC6 activity (fluorimetric assay); type: biochemical; settings: test concentrations 0.1, 1, 10, 100 and 1000 nM; 37° C., 60 minutes
T2 construct: purchased Calbiochem 382180
T2 sequence (Q9UBN7 1-1215): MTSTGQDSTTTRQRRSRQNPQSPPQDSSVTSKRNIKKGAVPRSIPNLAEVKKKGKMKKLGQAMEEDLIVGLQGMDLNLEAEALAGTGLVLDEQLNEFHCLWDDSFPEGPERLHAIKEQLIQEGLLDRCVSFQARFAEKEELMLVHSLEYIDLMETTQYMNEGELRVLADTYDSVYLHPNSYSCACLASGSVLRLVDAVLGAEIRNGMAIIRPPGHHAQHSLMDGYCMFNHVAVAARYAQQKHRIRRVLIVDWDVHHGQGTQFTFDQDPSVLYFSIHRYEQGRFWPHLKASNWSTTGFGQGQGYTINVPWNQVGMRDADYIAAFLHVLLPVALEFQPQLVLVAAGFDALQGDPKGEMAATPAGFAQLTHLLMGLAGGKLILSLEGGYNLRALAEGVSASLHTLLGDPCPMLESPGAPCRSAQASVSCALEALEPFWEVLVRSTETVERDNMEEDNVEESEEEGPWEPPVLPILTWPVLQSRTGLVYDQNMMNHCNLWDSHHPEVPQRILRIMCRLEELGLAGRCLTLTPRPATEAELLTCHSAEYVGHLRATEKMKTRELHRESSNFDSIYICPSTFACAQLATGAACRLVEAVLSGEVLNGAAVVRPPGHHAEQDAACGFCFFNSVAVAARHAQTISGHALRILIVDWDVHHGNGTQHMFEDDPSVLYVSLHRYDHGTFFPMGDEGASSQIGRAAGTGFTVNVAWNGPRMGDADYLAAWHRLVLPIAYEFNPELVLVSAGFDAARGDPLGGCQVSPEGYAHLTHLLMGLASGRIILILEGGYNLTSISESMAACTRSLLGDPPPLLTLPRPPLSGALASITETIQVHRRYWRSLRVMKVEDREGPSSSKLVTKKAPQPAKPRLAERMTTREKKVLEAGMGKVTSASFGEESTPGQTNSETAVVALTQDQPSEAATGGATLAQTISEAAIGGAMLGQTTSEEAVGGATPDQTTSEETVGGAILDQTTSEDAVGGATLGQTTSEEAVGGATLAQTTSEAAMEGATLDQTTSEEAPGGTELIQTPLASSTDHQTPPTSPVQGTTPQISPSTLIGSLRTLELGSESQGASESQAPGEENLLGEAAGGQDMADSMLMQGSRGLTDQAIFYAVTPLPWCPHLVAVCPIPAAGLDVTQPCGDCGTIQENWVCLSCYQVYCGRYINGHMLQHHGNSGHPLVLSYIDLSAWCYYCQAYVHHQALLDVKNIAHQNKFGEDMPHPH
Summary of the method: as §1

T1 sequence (Q13547 whole entry): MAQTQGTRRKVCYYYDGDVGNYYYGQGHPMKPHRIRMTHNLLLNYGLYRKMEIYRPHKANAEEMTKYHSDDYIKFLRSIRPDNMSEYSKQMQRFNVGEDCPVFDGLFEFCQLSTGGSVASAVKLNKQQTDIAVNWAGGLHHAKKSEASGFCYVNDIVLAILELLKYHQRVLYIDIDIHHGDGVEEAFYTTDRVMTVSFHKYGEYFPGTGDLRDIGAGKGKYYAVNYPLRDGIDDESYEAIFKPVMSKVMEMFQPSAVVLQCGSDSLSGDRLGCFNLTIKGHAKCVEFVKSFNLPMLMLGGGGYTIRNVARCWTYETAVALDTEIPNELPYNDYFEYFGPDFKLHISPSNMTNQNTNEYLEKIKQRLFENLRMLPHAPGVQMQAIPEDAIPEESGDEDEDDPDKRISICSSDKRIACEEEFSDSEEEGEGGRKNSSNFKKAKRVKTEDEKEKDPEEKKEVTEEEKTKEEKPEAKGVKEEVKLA

Compound	IC50 (HDAC1)	IC50 (HDAC6 human recombinant)
O=C(NO)c1ccc(Cn2ccc3c(N4CCN(Cc5cccc(F)c5)CC4)ccnc32)cc1 [Compound 848, 4-((4-(4-(3-fluorobenzyl)piperazin-1-yl)-1H-pyrrolo[2,3-b]pyridin-1-yl)methyl)-N-hydroxybenzamide]	0.85 µM	0.0091 µM
O=C(NO)c1ccc(Cn2ccc3cc(C4CCN(Cc5cccc(F)c5)CC4)cnc32)cc1 [Compound 781, 4-((5-(1-(3-fluorobenzyl)piperidin-4-yl)-1H-pyrrolo[2,3-b]pyridin-1-yl)methyl)-N-hydroxybenzamide]	2.44 µM	0.018 µM
O=C(NO)c1ccc(Cn2ccc3cc(N4CCN(Cc5ccccc5)CC4)cnc32)cc1 [Compound 806, 4-((5-(4-benzylpiperazin-1-yl)-1H-pyrrolo[2,3-b]pyridin-1-yl)methyl)-N-hydroxybenzamide]	0.68 µM	0.0067 µM
CN1CCN(Cc2cccc(C(=O)N3CCC(c4cnc5c(ccn5Cc5ccc(C(=O)NO)cc5)c4)CC3)c2)CC1 [Compound 896, N-hydroxy-4-((5-(1-(3-((4-methylpiperazin-1-yl)methyl)benzoyl)piperidin-4-yl)-1H-pyrrolo[2,3-b]pyridin-1-yl)methyl)benzamide]	0.8 µM	0.0086 µM
CN1CC=C(c2ccnc3c2ccn3Cc2ccc(C(=O)NO)cc2)CC1 [Compound 723, N-hydroxy-4-((4-(1-methyl-1,2,3,6-tetrahydropyridin-4-yl)-1H-pyrrolo[2,3-b]pyridin-1-yl)methyl)benzamide]	0.31 µM	0.005 µM
O=C(NO)c1ccc(Cn2ccc3cc(N4CCN(Cc5ccc(F)cc5)CC4)cnc32)cc1 [Compound 852, 4-((5-(4-(4-fluorobenzyl)piperazin-1-yl)-1H-pyrrolo[2,3-b]pyridin-1-yl)methyl)-N-hydroxybenzamide]	2.21 µM	0.0115 µM
O=C(NO)c1ccc(Cn2ccc3cc(C4CCN(Cc5ccc(F)cc5)CC4)cnc32)cc1 [Compound 843, 4-((5-(1-(4-fluorobenzyl)piperidin-4-yl)-1H-pyrrolo[2,3-b]pyridin-1-yl)methyl)-N-hydroxybenzamide]	0.77 µM	0.014 µM
CN1CCN(Cc2cccc(CN3CCC(c4ccnc5c4ccn5Cc4ccc(C(=O)NO)cc4)CC3)c2)CC1 [Compound 986, N-hydroxy-4-((4-(1-(3-((4-methylpiperazin-1-yl)methyl)benzyl)piperidin-4-yl)-1H-pyrrolo[2,3-b]pyridin-1-yl)methyl)benzamide]	0.42 µM	0.0115 µM
O=C(NO)c1ccc(Cn2ccc3c(N4CCN(Cc5ccccc5F)CC4)ccnc32)cc1 [Compound 847, 4-((4-(4-(2-fluorobenzyl)piperazin-1-yl)-1H-pyrrolo[2,3-b]pyridin-1-yl)methyl)-N-hydroxybenzamide]	0.6 µM	0.0056 µM
CC(C)(O)CN1CCC(c2ccnc3c2ccn3Cc2ccc(C(=O)NO)cc2)CC1 [Compound 812, N-hydroxy-4-((4-(1-(2-hydroxy-2-methylpropyl)piperidin-4-yl)-1H-pyrrolo[2,3-b]pyridin-1-yl)methyl)benzamide]	0.15 µM	0.005 µM
O=C(NO)c1ccc(Cn2ccc3cc(C4CCN(C(=O)c5cccc(F)c5)CC4)cnc32)cc1 [Compound 831, 4-((5-(1-(3-fluorobenzoyl)piperidin-4-yl)-1H-pyrrolo[2,3-b]pyridin-1-yl)methyl)-N-hydroxybenzamide]	1.22 µM	0.007 µM
CC(C)(C)OC(=O)N1CCC(c2cnc3c(ccn3Cc3ccc(C(=O)NO)cc3)c2)CC1 [Compound 694, tert-butyl 4-(1-(4-(hydroxycarbamoyl)benzyl)-1H-pyrrolo[2,3-b]pyridin-5-yl)piperidine-1-carboxylate]	5.17 µM	0.028 µM
O=C(NO)c1ccc(Cn2ccc3cc(C4=CCN(CC5CCCCC5)CC4)cnc32)cc1 [Compound 721, 4-((5-(1-(cyclohexylmethyl)-1,2,3,6-tetrahydropyridin-4-yl)-1H-pyrrolo[2,3-b]pyridin-1-yl)methyl)-N-hydroxybenzamide]	1.32 µM	0.019 µM
COc1cccc(CN2CCC(c3ccnc4c3ccn4Cc3ccc(C(=O)NO)cc3)CC2)c1 [Compound 859, N-hydroxy-4-((4-(1-(3-methoxybenzyl)piperidin-4-yl)-1H-pyrrolo[2,3-b]pyridin-1-yl)methyl)benzamide]	0.33 µM	0.006 µM
O=C(NO)c1ccc(Cn2ccc3c(C4CCN(Cc5cccc(CN6CCOCC6)c5)CC4)ccnc32)cc1 [Compound 985, N-hydroxy-4-((4-(1-(3-(morpholinomethyl)benzyl)piperidin-4-yl)-1H-pyrrolo[2,3-b]pyridin-1-yl)methyl)benzamide]	0.51 µM	0.0023 µM
CC(C)CN1CCN(c2cnc3c(ccn3Cc3ccc(C(=O)NO)cc3)c2)CC1 [Compound 853, N-hydroxy-4-((5-(4-isobutylpiperazin-1-yl)-1H-pyrrolo[2,3-b]pyridin-1-yl)methyl)benzamide]	3.51 µM	0.024 µM
C[C@@H]1CN(c2cnc3c(ccn3Cc3ccc(C(=O)NO)cc3)c2)C[C@H](C)N1Cc1cccnc1 [Compound 1004, 4-((5-((3S,5R)-3,5-dimethyl-4-(pyridin-3-ylmethyl)piperazin-1-yl)-1H-pyrrolo[2,3-b]pyridin-1-yl)methyl)-N-hydroxybenzamide]	0.61 µM	0.0032 µM
COc1ccc(CN2CCC(c3ccnc4c3ccn4Cc3ccc(C(=O)NO)cc3)CC2)cc1 [Compound 959, N-hydroxy-4-((4-(1-(4-methoxybenzyl)piperidin-4-yl)-1H-pyrrolo[2,3-b]pyridin-1-yl)methyl)benzamide]	0.9 µM	0.012 µM
O=C(NO)c1ccc(Cn2ccc3c(-c4ccncc4)ccnc32)cc1 [Compound 657, N-hydroxy-4-((4-(pyridin-4-yl)-1H-pyrrolo[2,3-b]pyridin-1-yl)methyl)benzamide]	0.47 µM	0.009 µM
O=C(NO)c1ccc(Cn2ccc3cc(C4CCN(Cc5ncccn5)CC4)cnc32)cc1 [Compound 881, N-hydroxy-4-((5-(1-(pyrimidin-2-ylmethyl)piperidin-4-yl)-1H-pyrrolo[2,3-b]pyridine-1-yl)methyl)benzamide]	0.85 µM	0.0053 µM
CN1CCN(c2ccnc3c2ccn3Cc2ccc(C(=O)NO)cc2)CC1 [Compound 224, N-hydroxy-4-((4-(4-methylpiperazin-1-yl)-1H-pyrrolo[2,3-b]pyridin-1-yl)methyl)benzamide]	0.18 µM	0.002 µM
O=C(NO)c1ccc(Cn2ccc3cc(N4CCN(Cc5cccc(F)c5)CC4)cnc32)cc1 [Compound 851, 4-((5-(4-(3-fluorobenzyl)piperazin-1-yl)-1H-pyrrolo[2,3-b]pyridin-1-yl)methyl)-N-hydroxybenzamide]	1.93 µM	0.0127 µM
O=C(NO)c1ccc(Cn2ccc3cc(N4CCC5(CC4)CN(Cc4cccnc4)C5)cnc32)cc1 [Compound 957, N-hydroxy-4-((5-(2-(pyridin-3-ylmethyl)-2,7-diazaspiro[3.5]nonan-7-yl)-1H-pyrrolo[2,3-b]pyridin-1-yl)methyl)benzamide]	0.65 µM	0.0016 µM
O=C(NO)c1ccc(Cn2ccc3cc(C4=CCOCC4)cnc32)cc1 [Compound 629, 4-((5-(3,6-dihydro-2H-pyran-4-yl)-1H-pyrrolo[2,3-b]pyridin-1-yl)methyl)-N-hydroxybenzamide]	1.05 µM	0.004 µM
O=C(NO)c1ccc(Cn2ccc3c(N4CCN(Cc5ccncc5)CC4)ccnc32)cc1 [Compound 850, N-hydroxy-4-((4-(4-(pyridin-4-ylmethyl)piperazin-1-yl)-1H-pyrrolo[2,3-b]pyridin-1-yl)methyl)benzamide]	0.22 µM	0.0044 µM
COc1cccc(CN2[C@H](C)CN(c3cnc4c(ccn4Cc4ccc(C(=O)NO)cc4)c3)C[C@@H]2C)c1 [Compound 1003]	2.68 µM	0.0077 µM
